According to patent publication US11226337B2, “Chemoproteomic profiling of protein electrophilic and oxidative post-translational modifications” (Zenagem, LLC, priority 2017, dated 2022):
Entries after “also recorded” stand apart in the source; their conditions may differ. Blank lines part the entries; values can stand above or below the compound they belong to.

Assays:
AMD1 = target: T1, AMD1 (Homo sapiens, UniProt P17707); assay: gel-based RP-ABPP of transfected HEK293T cells; assay type: cell-based
T1 construct: Full-length genes encoding three probe 1- and one probe 2-targeted proteins were amplified from a cDNA library; expressed in transfected cells; host or cells: HEK293T
T1 sequence (P17707 68-334 limits assumed): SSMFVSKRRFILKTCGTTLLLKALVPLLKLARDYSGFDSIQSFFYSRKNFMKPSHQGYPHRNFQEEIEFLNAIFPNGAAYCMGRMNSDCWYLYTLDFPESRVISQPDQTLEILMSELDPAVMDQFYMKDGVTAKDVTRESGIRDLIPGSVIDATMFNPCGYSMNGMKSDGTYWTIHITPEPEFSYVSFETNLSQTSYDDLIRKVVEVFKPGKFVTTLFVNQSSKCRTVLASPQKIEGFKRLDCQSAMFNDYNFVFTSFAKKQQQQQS
T1 sequence (P17707 1-67 limits assumed): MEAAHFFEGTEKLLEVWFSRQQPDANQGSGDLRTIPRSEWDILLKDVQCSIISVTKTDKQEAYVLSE

HEK293T cells = assay: gel-based in situ probe labelling (rhodamine-azide, in-gel fluorescence); assay type: cell-based, human; settings: probe 1 3 mM, 30 min; dihydrochloride
Protocol: For gel-based experiments, cells were plated and grown to near complete confluence at the time of treatment. Cells were washed with cold phosphate buffered saline (PBS, pH 7.4) and replenished with serum-free DMEM (˜15% of normal passage volume, e.g. a 10 cm plate normally passaged with 10 mL media received 1.5 mL) supplemented with 10 mM Na-HEPES buffer (pH 7.5). Unless otherwise indicated, cells were incubated with probes (3 mM and 1 mM for probes 1 and 2, respectively) in the absence or presence of 10-fold excess non-clickable competitor probes (30 mM and 10 mM for 3 and 4, respectively) for 0.5 hour at 37° C. When applicable, probe and competitor were premixed before co-administering to the cells.
The cells were lysed, and the cell proteomes were conjugated to a rhodamine-azide (Rh—N3) reporter tag.
(§1) Soluble proteomes from treated cells were diluted to 1 mg/mL. To each sample (50 μL), a freshly prepared “click” or CuAAC reagent mixture (6 μL) containing 0.1 mM tris(benzyltriazolylmethyl)amine (TBTA) (3 μL/sample, 1.7 mM in 4:1 DMSO:t-BuOH), 1 mM CuSO4 (1 μL/sample, 50 mM in H2O), 25 μM azide-rhodamine (1 μL/sample, 1.25 mM in DMSO), and freshly prepared 1 mM tris(2-carboxyethyl)phosphine (TCEP) (1 μL/sample, 50 mM in PBS or H2O) was added to conjugate the fluorophore to probe-labelled proteins. TBTA was purchased from TCI and azide-rhodamine was synthesized as previously described^64. Upon addition of the click mixture, each reaction was immediately mixed by vortexing and then allowed to react at ambient temperature for 1 hour before quenching the reactions with SDS loading buffer (4× stock, 17 μL). Proteins (˜25 μg total protein loaded per gel lane) were resolved by SDS-PAGE (10% acrylamide) and visualized by in-gel fluorescence scanning on a Hitachi FMBIO-II or BioRad ChemiDoc MP flatbed fluorescence scanner.

FTO = target: T2, FTO (Homo sapiens, UniProt Q9C0B1); assay: gel-based RP-ABPP of transfected HEK293T cells; assay type: cell-based; settings: transfected HEK293T cells
T2 construct: Full-length genes encoding three probe 1- and one probe 2-targeted proteins were amplified from a cDNA library; expressed in transfected cells; host or cells: HEK293T
Protocol: as §1
(§2) Full-length genes encoding three probe 1- and one probe 2-targeted proteins were amplified from a cDNA library derived from the same low-passage HEK293T cells used for proteomic profiling. The library was generated using Ribozol RNA extraction (Amresco) and iScript reverse transcription (Bio-rad) supermix reagents. The gene products were cloned into mammalian expression vectors containing N- or C-terminal FLAG affinity tags. The gene for S-adenosyl-L-methionine decarboxylase (AMD1 or AdoMetDC) was cloned into pFLAG-CMV-sport6 (N-terminal tag) at NotI and SalI restriction sites. AMD1, Secernin-3 (SCRN3) and fat mass- and obesity-associated Fe(II)- and 20G-dependent dioxygenase (FTO) were cloned into pRK5 (C-terminal tag) at SalI and NotI restriction sites. Kelch-like ECH-associated protein-1 (Keapl) (N-terminal tag), and empty plasmids of pRK5 were gifts. Full sequences of the genes were confirmed. The proteins expressed via transient transfection in HEK293T cells contain an additional 15 amino acids appended to their N-terminal methionine residue or C-terminus (MDYKD4KLKACGR (SEQ ID NO: 43) and A3G4DYKD4K (SEQ ID NO: 44), respectively). The DYKD4K (SEQ ID NO: 42) appendage in each contains the classic FLAG epitope that permits detection by western blotting or purification by affinity chromatography. Mutants of SCRN3 were generated using QuikChange site-directed mutagenesis with primers containing the desired mutations and their respective compliments. The gene for the deletion mutant of SCRN3 with the sequence MetlCys6-SCRN3 instead of Met1 Glu2Pro3Phe4Ser5Cys6-SCRN3 (SEQ ID NO: 45) was amplified from the wild-type C-terminal FLAG-tagged construct and cloned into the same vector.
(§3) HEK293T cells were grown to ˜40% confluence under standard growth conditions passaged in the appropriate media before adding the appropriate expression vector (control cells (‘mock’) received an equal amount of the appropriate empty vector) and polyethyleneimine (PEI) ‘MAX’ (MW 40,000, Polysciences Inc.) as a transfection reagent under standard transfection conditions (3:1 vector/PEI (w/w) ratio). Cells were incubated for ˜48 h before labelling in situ. Proteomes were processed for gel- and MS-based experiments as described above and in Example 2.
(§4) After scanning fluorescence, that same gel was transferred to nitrocellulose membrane in Towbin buffer, the membrane was blocked for ˜1 hour at ambient temperature with 5% nonfat dry milk (w/v) in Tris-buffered saline with Tween 20 (TBST) and incubated with primary antibodies in the same solution overnight at 4° C. The antibodies included anti-FLAG (1:2500, F1804, Sigma), anti-AdoMetDC (1:500, sc-160951, Santa Cruz Biotechnology) and anti-His6 (1:1000, ab18184, Abcam). The blots were washed (3×5 min, TBST), incubated with secondary antibodies (1:10,000, IRDye 800CW, LICOR) in milk for 1 hour at ambient temperature, washed again (3×5 min, TBST), and visualized on a LICOR Odyssey Scanner.

KEAP1 = target: T3, KEAP1 (Homo sapiens, UniProt Q14145); assay: gel-based RP-ABPP of transfected HEK293T cells; assay type: cell-based; settings: transfected HEK293T cells
T3 construct: Full-length genes encoding three probe 1- and one probe 2-targeted proteins were amplified from a cDNA library; expressed in transfected cells; host or cells: HEK293T
Protocol: as §1, §2, §3, §4

SCRN3 = target: T4, SCRN3 (Homo sapiens, UniProt Q0VDG4); assay: gel-based RP-ABPP of transfected HEK293T cells; assay type: cell-based; settings: transfected HEK293T cells
T4 construct: Full-length genes encoding three probe 1- and one probe 2-targeted proteins were amplified from a cDNA library; expressed in transfected cells; host or cells: HEK293T
T4 sequence (Q0VDG4 6-424): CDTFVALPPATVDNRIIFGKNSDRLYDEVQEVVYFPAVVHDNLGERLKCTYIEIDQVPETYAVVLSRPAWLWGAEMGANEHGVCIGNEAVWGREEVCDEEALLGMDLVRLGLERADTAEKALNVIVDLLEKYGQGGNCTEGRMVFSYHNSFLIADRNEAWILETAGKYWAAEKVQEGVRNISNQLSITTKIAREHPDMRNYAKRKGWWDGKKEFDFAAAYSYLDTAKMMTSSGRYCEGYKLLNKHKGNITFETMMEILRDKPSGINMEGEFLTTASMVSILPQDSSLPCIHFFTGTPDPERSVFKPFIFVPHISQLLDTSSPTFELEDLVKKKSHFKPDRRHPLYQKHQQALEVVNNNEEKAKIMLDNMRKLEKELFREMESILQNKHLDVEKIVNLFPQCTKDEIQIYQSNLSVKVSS
Protocol: as §1, §2, §3, §4

[1] = target: T5, SCRN3 Secernin-3 (Q0VDG4) (Homo sapiens, UniProt Q0VDG4); assay: SILAC RP-ABPP; assay type: cell-based; settings: SILAC competition, drug in place of probe 3
T5 construct: shared by both the endogenous and recombinant forms of these proteins; endogenous in cells; host or cells: HEK293T and MDA-MB-231
T5 sequence (Q0VDG4 6-424): T4 sequence (Q0VDG4 6-424)
Protocol: (§5) Modifications to this protocol included using isotopically ‘light’ and ‘heavy’ SILAC cells that were also grown to near complete confluence prior to treatment. Isotopically light cells were treated with the non-clickable hydrazine probe (at the same concentration as the probe in ‘enrichment’ experiments) or the probe in the presence of 10-fold excess non-clickable hydrazine probe as a competitor (in ‘competition’ experiments). Isotopically heavy cells were treated with the probe for both types of experiments. These treatments were performed in non-SILAC media. Following treatments, cells were washed with cold PBS to remove the probe-containing media, harvested by scraping, collected by centrifugation (1,400 g, 3 min, 4° C.), washed again by resuspension in cold PBS and frozen as pellets at −80° C. until use.
(§6) The fractionated equimolar mixture of heavy and light soluble proteomes (1-1.5 mg) was diluted to 1 mL in PBS. Click reactions were scaled accordingly (except for biotin-azide) to maintain final concentrations of 0.1 mM TBTA, 1 mM CuSO4, 100 μM biotin-azide (10 mM in DMSO) and 1 mM TCEP. The mixture was vortexed and placed on a rotator at ambient temperature for 1 hour. Sequential addition of and mixture with pre-chilled methanol (MeOH, 2 mL), chloroform (CHCl3, 0.5 mL) and PBS (1 mL) on ice quenched the reaction. The precipitated proteome was centrifuged (5,000 g, 10 min, 4° C.) to fractionate the protein interphase from the organic and aqueous solvent layers. The protein pellet was washed with cold 1:1 MeOH:CHCl3 (3×1 mL), mildly sonicated in cold 4:1 MeOH:CHCl3 (2.5 mL) and pelleted once more by centrifugation (5,000 g, 10 min, 4° C.) to ensure click reagents were efficiently removed.
(§7) Heavy and light parent ion chromatograms associated with successfully identified peptides were extracted and compared using CIMAGE software as previously described^69. At least one ion of a co-eluting heavy-light pair must be accurately identified from a fragmentation event that occurred within the retention time window (±10 min) of parent ion elution. To ensure that the correct pair of peaks is quantified, chromatograms are extracted within a 10 ppm error tolerance of the predicted m/z, the signal-to-noise ratio must be >2.5 and the ‘co-elution correlation score’ and ‘envelope correlation score’ must have R^2 values ≥0.8. In addition, peptides detected as ‘singletons,’ where only the heavy ion of a peptide pair was identified, but for which passed all other filtering parameters, are given a default assigned ratio of ‘20,’ which is defined as any measured ratio that is ≥20.
(§8) To further eliminate false positives and any stochastic variability in the data, protein ratios were then determined by the median peptide ratio derived from three or more unique quantified peptides. Protein ratios that complied with these criteria from a single experiment were then averaged with ratios acquired from ≥3 replicates to provide final values for each type of experiment in both cell lines with both probes. […] Probe targets in HEK293T and MDA-MB-231 cells represent data combined from ≥3 independent biological replicates with each cell type performed with several independent batches of synthesized probes over a period of almost two years.
(§9) Two types of experiments were performed—1) direct enrichment of probe 1-labelled proteins from heavy cells in comparison to light control cells treated with the non-clickable hydrazine (3) at the same concentration as 1 (3 mM for 0.5 h); and 2) competition experiments where both heavy and light cells were treated probe 1, but light cells were also treated with 10× competitor 3 (FIG. 3A)—in two different human cell lines (HEK293T cells and the human breast cancer cell line MDA-MB-231).

[2] = target: T6, AMD1 S-adenosylmethionine decarboxylase (P17707) (Homo sapiens, UniProt P17707); assay: SILAC RP-ABPP; assay type: cell-based; settings: SILAC competition, drug in place of probe 3
T6 construct: shared by both the endogenous and recombinant forms of these proteins; endogenous in cells; host or cells: HEK293T and MDA-MB-231
T6 sequence (P17707 68-334 limits assumed): T1 sequence (P17707 68-334 limits assumed)
T6 sequence (P17707 1-67 limits assumed): T1 sequence (P17707 1-67 limits assumed)
Protocol: as §5, §6, §7, §8, §9

[3] = target: T7, SCRN2 Secernin-2 (Q96FV2) (Homo sapiens, UniProt Q96FV2); assay: SILAC RP-ABPP; assay type: cell-based; settings: SILAC competition, drug in place of probe 3
T7 construct: shared by both the endogenous and recombinant forms of these proteins; endogenous in cells; host or cells: HEK293T and MDA-MB-231
Protocol: as §5, §6, §7, §8, §9

LGMN Legumain (Q99538) = target: T8, LGMN Legumain (Q99538) (Homo sapiens, UniProt Q99538); assay: SILAC RP-ABPP; assay type: cell-based; settings: SILAC competition, drug in place of probe 3
T8 construct: shared by both the endogenous and recombinant forms of these proteins; endogenous in cells; host or cells: HEK293T and MDA-MB-231
T8 sequence (Q99538 18-323): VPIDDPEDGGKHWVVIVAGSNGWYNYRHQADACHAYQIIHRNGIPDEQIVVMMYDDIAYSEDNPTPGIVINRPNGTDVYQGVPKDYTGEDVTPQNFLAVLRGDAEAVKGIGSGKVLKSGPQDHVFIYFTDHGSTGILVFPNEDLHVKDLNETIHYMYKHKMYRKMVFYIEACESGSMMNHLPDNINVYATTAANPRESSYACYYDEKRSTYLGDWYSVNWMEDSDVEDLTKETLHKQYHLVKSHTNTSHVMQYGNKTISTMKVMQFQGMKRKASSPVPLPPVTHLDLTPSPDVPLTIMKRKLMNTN
Protocol: as §5, §6, §7, §8, §9

- increase of probe 1 labeling of recombinant AMD1 (AMD1; L-methionine lowered from 200 μM to 10 μM, AMD1 expression negligibly changed): seven-fold
Compound: CSCC[C@H](N)C(=O)O [L-methionine]

Compound: CCCNN.Cl.Cl [probe 3, Propyl hydrazine dihydrochloride, reference compound]
- competition of probe 1 labelling by co-administered non-clickable probe (HEK293T cells): suppressed by increasing concentrations; also recorded: blocks the labeling of proteins by probe 1
- blocking of probe labeling by excess non-clickable probe (AMD1; transfected HEK293T cells): blocked
- blocking of probe labeling by excess non-clickable probe (FTO): blocked
- blocking of probe labeling by excess non-clickable probe (KEAP1): blocked
- blocking of probe labeling by excess non-clickable probe (SCRN3): blocked

- competition of probe 1 labelling by competitor drug [1]: almost no competition
- competition of probe 1 labelling by competitor drug [2]: almost no competition
- competition of probe 1 labelling by competitor drug [3]: almost no competition
- competition of probe 1 labelling by competitor drug (LGMN Legumain (Q99538)): almost no competition
Compound: NNC(=O)c1ccncc1 [isoniazid, reference compound]
